Test results from US9546195B2, “Hydrophobic ceragenin compounds and devices incorporating same” (BRIGHAM YOUNG UNIVERSITY, priority 2011, dated 2017).

What was measured:
[1] = tested on: microbes; test: Ability to elute from polymer and kill microbes; details: compared with other ceragenins
[2] = tested on: S. aureus; test: MIC of CSA-138 for S. aureus; assay type: cell-based; details: Staphylococcus aureus
[3] = tested on: P. aeruginosa; test: MIC of CSA-138 for P. aeruginosa; assay type: cell-based; details: Pseudomonas aeruginosa
[4] = Elution of radiolabeled CSA-138 from hydrogel contact lenses, scintillation counting; assay type: physicochemical
Protocol: To decrease the detection limit for CSA-138, we prepared a radiolabeled version of CSA-138 (CSA-138T2), incorporated it into contact lenses, and quantified its elution from lenses using scintillation counting.
Lenses containing 1% CSA-138 were stored in 0.5 mL phosphate buffered saline (PBS) prior to testing. One set of lenses was autoclaved for 45 min before elution studies were performed. For elution studies, lenses were suspended in 2 ml aliquots of PBS, 10% TSB growth medium, 10% TSB growth medium containing 10^6 CFU of Staphylococcus aureus, or 10% TSB growth medium containing 10^6 CFU of Pseudomonas aeruginosa. Corresponding aliquots were exchanged every 24 h, including bacterial inocula. Samples were removed every 24 h and analyzed for the presence of CSA-138 using scintillation counting. A standard curve was generated to correlate counts per minute to concentration of CSA-138. All experiments were performed in triplicate.

[5] = Elution of CSA-138 from hydrogel contact lenses, LC/MS with mass-labeled internal standard; assay type: physicochemical; details: lenses with CSA-138 incorporated at 1%; LC/MS detection limit about 2 μg/ml
Protocol: To better understand the mechanism by which hydrophobic ceragenin compounds can prevent bacterial colonization, the bonding between CSA-138 and a hydrogel used in contact lenses was evaluated. In a first example, we determined the rate at which CSA-138 elutes from a hydrogel suitable for use in contact lenses. To quantify the amount of ceragenin eluting from the hydrogel, we used LC/MS using a mass-labeled internal standard. However, this method only gave detection limits of about 2 μg/ml, and we were able to effectively kill bacteria at constant elution rates below the detection limit.

[6] = tested on: S. aureus; details: elution from lenses, inocula 10^6 CFU S. aureus; cited from earlier work
[7] = tested on: P. aeruginosa; details: elution from lenses, inocula 10^6 CFU P. aeruginosa; cited from earlier work

SMILES: CCCCCCCCCCNCCC[C@@H](C)[C@H]1CC[C@H]2[C@@H]3[C@H](OCCCN)C[C@@H]4C[C@H](OCCCN)CC[C@]4(C)[C@H]3C[C@H](OCCCN)[C@]12C [CSA-136]
- ability to elute and kill microbes [1]: advantageous over CSA-135

SMILES: CCCCCCCCCCCCCNCCC[C@@H](C)[C@H]1CC[C@H]2[C@@H]3[C@H](OCCCN)C[C@@H]4C[C@H](OCCCN)CC[C@]4(C)[C@H]3C[C@H](OCCCN)[C@]12C [CSA-138]
- MIC [2]: 0.5 µg/mL
- MIC [3]: 1 µg/mL
- elution in the presence of bacteria ([4]; 10% TSB with 10^6 CFU S. aureus (nine days) or P. aeruginosa (eight days), FIGS. 6 and 7): fluctuated substantially
- elution on the first day ([4]; lenses containing 1% CSA-138, suspended in 2 ml PBS, first day (FIG. 3)): about 2.2 μg/ml
- time until elution of CSA-138 drops below 1 μg/ml ([4]; trend of FIG. 5 extended): about 40 days
- time until elution fell below detection limits [5]: within five days
- prevents colonization, consecutive days [6]: 30 days
- prevents colonization [7]: 19 days
